# Test: gradient 5% acetonitrile 3 min, to 50% in 2 min, to 85% in 15 min, held 3 min, 100 µL/min
# Details: column: Zorbax Extend-C18 2.1 x 50 mm; eluents: water / acetonitrile, 0.1% formic acid
# Summary of the method: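 Retention times come from adduct peaks that were picked computationally and then checked by hand. The standards, pure and pooled in mixtures of ~100 molecules, were run on a Zorbax Extend-C18 column (2.1 × 50 mm, 1.8 μm) at 100 μL/min with water and acetonitrile, each with 0.1% formic acid. Detection was by quadrupole time-of-flight mass spectrometry in positive and negative ionization mode, with a dead volume of 40 μL and a dwell volume of 900 μL.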
row,RP-LC retention time,Structure (SMILES)
1,812 s,Cc1ccc(Cn2c(=O)c3nn(C)cc3n3c(=O)n(Cc4ccc(N5CCCC5=O)cc4)nc23)cc1
2,1240 s,COc1ccc(C(C)NS(=O)(=O)c2cc(-c3nc(C(C)(C)C)cs3)cs2)cc1 (stereo not given)
3,623 s,CCN1CCN(c2c(S(=O)(=O)c3ccccc3)cnc3cc(OC)c(OC)cc23)CC1
4,829 s,CC(C)CCNC(=O)C1CCN(Cc2cc3ccccc3n2Cc2ccccc2Cl)CC1
5,710 s,Cc1oc(-c2[nH]ncc2C(=O)N2CCCC2)cc1S(=O)(=O)NCc1ccc(F)cc1F
6,612 s,CO[C@H]1CN(C2CCN(S(=O)(=O)Cc3ccccc3)CC2)[C@H]1c1ccncc1
7,666 s,COCCCNC(=O)C1c2ccccc2C(=O)N(C)C1c1ccc(OC)c(OC)c1 (stereo not given)
8,766 s,O=C(NCc1ccc2c(c1)OCO2)c1ccc2c(cnn2CC(=O)N2CCCCCC2)c1
9,707 s,O=C(NCC(F)(F)F)C1CCN(C(=O)Cc2ccc(Cl)cc2)CC1
10,643 s,Cc1ccc2c(C(=O)NCCc3cccs3)cc(NC(=O)C(C)C)cc2n1
11,660 s,Cc1ccc(-c2c(N3CCN(c4ccccn4)CC3)c(=O)c2=O)cc1
12,635 s,O=C(/C=C/c1cccnc1)/C=C/c1cccnc1
13,633 s,CCN(CC)CCCNC(=O)C1c2ccccc2C(=O)N1Cc1ccc(C)cc1 (stereo not given)
14,693 s,CCCCNC(=O)C1CCCN1C(=O)c1ccc(NC(=O)C(C)(C)C)cc1 (stereo not given)
15,621 s,Cc1ccccc1CNC(=O)c1c(C)oc2c1C1=NCCN1C=N2
16,1010 s,COc1ccc(OC)c(NC(=O)Cn2cccc2-c2nc(-c3ccc4c(c3)OCO4)no2)c1
17,576 s,CNc1nccc(N2CCC(CC(=O)O)CC2)n1
18,825 s,CN(C)c1cc(-n2cnc(C(=O)NCc3ccc(Cl)cc3)c2)ncn1
19,829 s,Cc1ccccc1Oc1nccn2c(=O)n(CC(=O)Nc3ccc(F)cc3F)nc12
20,798 s,CCN1C(=O)c2c(C(=O)NCc3ccc(Cl)cc3)ncn2CC1(C)C(=O)NC1CCCC1 (stereo not given)
21,595 s,CSc1ccccc1CN1CCC(CNC(=O)C(=O)NCc2ccc(F)cc2)CC1
22,578 s,COC(=O)c1nnn(-c2nonc2N)c1CN1CCN(c2ccccn2)CC1
23,908 s,COc1cc(OC)cc(-c2noc(CCn3nc(-c4ccc5c(c4)OCO5)ccc3=O)n2)c1

row,RP-LC retention time,Structure (SMILES)
1,575 s,O=C(NCc1ccccc1)c1nc(-c2ccncc2)cs1
2,876 s,Cc1[nH]c(C(=O)N2CCC(CC(=O)NCc3ccccc3Cl)CC2)c(C)c1C(=O)OC(C)C
3,655 s,Cc1nc2c(OCc3ccccc3)cccn2c1CC#N
4,710 s,CCC1CCCCN1Cc1ccc(CNC(=O)c2c(C)oc3c2C2=NCCN2C=N3)o1 (stereo not given)
5,666 s,O=C(CCC1CCN(c2cc(NC3CC3)ncn2)CC1)NCc1cc(F)ccc1F
6,1320 s,COc1cc2c(cc1CNC(=O)C(=O)c1c[nH]c3ccccc13)OCCCO2
7,884 s,Cc1ccc2c(c1)N(C(=O)Cn1c(=O)c(CCC(=O)NCC(C)C)nc3ccccc31)CCO2
8,562 s,Cc1noc2ncnc(N3CCN(c4ccccn4)CC3)c12
9,1120 s,C=CCN1C(=O)COc2ccc(-c3csc(NC(=O)c4ccc(Br)cc4)n3)cc21
10,678 s,COC(=O)c1ccc(C(=O)OC)c(NC(=O)N2CCC(CN3CCC(C)CC3)CC2)c1
11,698 s,COCCNc1c(-c2cccc(OC)c2)nc2sc(C(=O)N(C)C)c(C)n12
12,670 s,Cc1cccc(-n2ccnc2SCC(=O)Nc2nccs2)c1C
13,943 s,CCCn1cc(S(=O)(=O)Nc2cccc(C)c2C)c2cccnc21
14,844 s,O=C(C1CCCO1)N1CCC(CCOc2ccccc2)CC1 (stereo not given)
15,547 s,Cc1nn(C)c(C)c1CCC(=O)NCCn1c(C)cnc1C1CCC1
16,670 s,Cc1ccc(S(=O)(=O)Nc2cccc(-c3nc4ncccn4c3C)c2)cc1
17,692 s,Cc1ccccc1Cc1nc(-c2ccc3c(c2)nnn3CCN2CCOCC2)no1
18,985 s,Cc1ccc(NC(=O)Cn2cccc2-c2nnc(C3CCC3)o2)cc1C
19,829 s,CCc1cc(=O)n(CC(=O)Nc2ccc(Br)cc2)c(N2CCOCC2)n1
20,573 s,CCCNc1nc(N)c2ccccc2n1
21,968 s,CCOc1ccc(CC(=O)N2CCCn3nc(-c4cccc(C)c4)cc3C2)cc1
22,1070 s,C=Cc1ccc(CSc2ccc(-n3nc4c(c3C)CCC4)nn2)cc1
23,1080 s,CNS(=O)(=O)c1cccnc1Nc1cccc(C(C)C)c1

row,RP-LC retention time,Structure (SMILES)
1,668 s,CCN(CC)CCCNC(=O)C1CCCN(c2ncc(-c3ccc(F)cc3)cn2)C1 (stereo not given)
2,587 s,CCC(C)(C)NC(=O)Cn1ncc2c(N3CCN(c4ccccn4)CC3)ncnc21
3,791 s,CCN1C(=O)c2cc(C(=O)NCCc3ccccc3)nn2CC1(C)C(=O)NC1CCCC1 (stereo not given)
4,635 s,OC(CN1CCN(c2ccc(F)cc2)CC1)c1ccc2c(c1)OCO2 (stereo not given)
5,1010 s,Cc1ccccc1C(=O)Nc1nc(-c2ccc3c(c2)N(C)C(=O)C(C)O3)cs1 (stereo not given)
6,799 s,CCN1c2ccccc2C(=O)NC12CCN(C(=O)c1ccc(F)c(F)c1)CC2
7,627 s,Cc1nc(CCNC(=O)[C@H]2CCCN2C(=O)c2ccc(F)cc2)cs1
8,1220 s,Cc1ccc(-c2nc(Cn3ccn4nc(-c5ccc(F)cc5)cc4c3=O)c(C)o2)cc1
9,1180 s,O=c1c2scc(-c3ccc(F)cc3)c2ncn1Cc1ccc(Br)cc1
10,1450 s,FC(F)(F)c1cc(-c2cccs2)n(-c2nc(-c3ccccc3)cs2)n1
11,623 s,CS(=O)(=O)NC1(CC2CC2)CCN(Cc2cn[nH]c2-c2ccc(F)cc2)CC1
12,830 s,CCOC(=O)c1ccc2nc(NC(=O)c3ccco3)sc2c1
13,700 s,CCn1c(CCC(=O)NCc2cccc(F)c2)nc2ccccc2c1=O
14,1080 s,Cc1cccc(N2CCN(C(=O)CCC3CCCN(C(=O)Nc4ccccc4)C3)CC2)c1C (stereo not given)
15,973 s,Cc1ccc2c(c1)N(S(C)(=O)=O)CCC(C(=O)Nc1cccc(F)c1)O2 (stereo not given)
16,625 s,CNC(=O)N1CCc2ccc(C(=O)NC(C)C)cc21
17,808 s,O=C(Cn1c(=O)c2cc(C3CC3)nn2c2ncccc21)N1CCc2ccccc21
18,635 s,CCC(C)C(=O)N1CC(N(Cc2ccncc2)CC(C)C)C1 (stereo not given)
19,816 s,COc1ccc(-c2noc(C3CCCN3C(=O)C3CC3)n2)cc1 (stereo not given)
20,887 s,COc1ccc(OC)c(NC(=O)NC2CCN(c3cc(C)cc(C)c3)C2=O)c1 (stereo not given)
21,989 s,Cc1ccc(S(=O)(=O)N2CCC(C(=O)NCc3csc(-c4ccccc4)n3)CC2)cc1C
22,616 s,Cc1ccc(-n2c(=O)n(CC(=O)NCCN3CCCCC3)c3cccnc32)cc1
23,834 s,COc1ccc(-c2noc(Cn3ccn(-c4cc(C)cc(C)c4)c(=O)c3=O)n2)cc1OC

row,RP-LC retention time,Structure (SMILES)
1,746 s,Cc1nc(Nc2ncc3c(n2)CC(c2ccc(F)cc2)CC3=O)nc2c(C)cccc12 (stereo not given)
2,806 s,CC(C)c1ccc(Nc2c(-c3ccc(N4CCOCC4)cc3)nc3ncccn23)cc1
3,1210 s,Clc1ccc(Cc2nnc3sc(-c4ccc5ccccc5n4)nn23)cc1
4,673 s,Cc1ccc(N2CC(C(=O)N(C)C)CC2=O)cc1 (stereo not given)
5,1020 s,CCc1noc(NC(C)=O)c1-c1ccc(C)c(S(=O)(=O)N2CC=C(c3ccccc3)CC2)c1
6,748 s,O=C(C1=CN(c2ccc(F)cc2)c2cc(F)ccc2S1(=O)=O)N1CCCC1
7,727 s,CC(C)n1c(=O)c(NCCc2ccc(Cl)cc2)nc2ccncc21
8,896 s,COc1ccc(NC(=O)C2CCN(S(=O)(=O)c3c(C)nn(-c4ccccc4)c3C)CC2)cc1
9,750 s,COc1ccc(N2C(=O)C3(CCCCC3)C2C(=O)N(C)C)cc1 (stereo not given)
10,702 s,CC(=O)Nc1ccc(NC(=O)c2cccc(N3C(=O)NC4CC3(C)Oc3ccccc34)c2)cc1 (stereo not given)
11,567 s,CCn1ncc(C(=O)N2CCCn3ccnc3C2C(C)C)c1C (stereo not given)
12,989 s,COc1ccccc1CCc1nc(C2CC(=O)N(C3CCCCC3)C2)no1 (stereo not given)
13,995 s,Cc1nc(Cn2cccc2C(=O)Nc2ccc(Br)c(C)c2)no1
14,865 s,CCOc1ccc(-c2csc3c(=O)n(Cc4ccccn4)cnc23)cc1OCC
15,830 s,COc1cccc2cc(-c3nnc(NC(=O)NC4CCCC4)o3)oc12
16,698 s,CCN1CCN(c2ccc(-c3nc(-c4cccc(F)c4)no3)cn2)CC1
17,663 s,O=C(O)C1CCN(S(=O)(=O)c2cccc([N+](=O)[O-])c2)CC1
18,1230 s,CC(C)Cc1csc(-c2csc(S(=O)(=O)Nc3cccc(Cl)c3)c2)n1
19,817 s,O=C(Nc1cnn(-c2ncc(N3CCCC3)cn2)c1)c1ccccc1C(F)(F)F
20,797 s,CC(C)n1cnc2ccc(-c3noc(CCc4ccccc4)n3)cc21
21,1170 s,COc1ccc(-c2noc(C3(NC(=O)COc4ccccc4)CCCCC3)n2)cc1
